Source: patent US20080145340A1, “Neuroactive agents and methods of their use” (The University of Western Australia, priority 2005, published 2008)

Key:
Assay type in all cases: cell-based, rat
[1] = system: cortical neuronal cultures; assay: Differential protein expression in preconditioned neuronal cultures, 2-D gel electrophoresis (Example 1); conditions: CHX 0.3 μg/ml for 24 h; MK801 1 μM for 30 min, then 12 h; versus untreated DIV 12 cultures
Protocol: Cortical tissue from E18-E19 rats was dissociated in Hibernate E medium (Invitrogen, Carlsbad, Calif., USA) supplemented with 1.3 mM L-cysteine, 10 units/ml papain (ICN, Costa Mesa, Calif., USA) and 50 units/ml DNase (Sigma, St. Louis, Mo., USA) and washed in cold Dulbecco's Modified Eagle Medium (Invitrogen)/10% horse serum.
Neurons were resuspended in Neurobasal (NB; Invitrogen)/2% B27 supplement (Invitrogen), the cell concentration was adjusted to 1.8 million neurons/2 ml and 2 ml inoculated into each well of a 6 well plate pretreated as described below.
Neuronal cultures were maintained in a CO2 incubator (5% CO2, 95% air balance, 98% humidity) at 37° C. […]
Total protein was isolated from control and preconditioned neuronal cultures at the times outlined above by removing all the media from wells and washing once with phosphate-buffered saline, before the addition of lysis buffer (7M urea, 2M thiourea, 40 mM tris-HCl, 1% sulfobetaine 3-10, 2% CHAPS, 65 mM DTT, 1% Bio-Lyte carrier ampholytes pH 3-10; Bio-Rad, Hercules, Calif., USA). […] Protein content was determined by amino acid analysis using Waters AccQ Tag chemistry (Millipore Corporation, Milford, Mass., USA) as previously described (Cohen et al., 1983, in: Angeletti, R. H. (Ed.), Techniques in Protein Chemistry IV, Academic Press, San Diego). […]

[2] = system: cortical neuronal cultures; assay: Cumene hydroperoxide oxidative stress, neuronal survival by MTS assay (Example 4); conditions: for neuronal survival following cumene exposure: cumene 25 μM, survival 24 h later, untreated 15%, FIG. 8A
Protocol: (§1) Neurons were resuspended in Neurobasal (NB; Invitrogen) containing 2% B27 supplement (B27; Invitrogen).
(§2) Neuronal cultures were maintained in a CO2 incubator (5% CO2, 95% air balance, 98% humidity) at 37° C.

[3] = system: primary cortical neuronal cultures; assay: Cumene oxidative stress injury model (Example 3); conditions: protein added (0.1-100 nM) at the time of cumene exposure
Description: Adenovirus vectors were used to upregulate specific proteins in primary cortical neuronal cultures. cDNA for proteins of interest was obtained by RT-PCR and cloned into pGEM. Sequence verified cDNA clones were then used to construct recombinant adenoviruses expressing genes of interest under the control of the rous sarcoma virus (RSV) promoter and the woodchuck post-transcriptional regulatory element (WPRE). The recombinant viruses also express the reporter GFP under the control of the CMV promoter. Protein of interest expression in recombinant adenoviruses was confirmed in transfected HEK and/or neuronal cultures. Control viruses consisted of an adenovirus expressing RFP, no gene (empty vector) and the anti-apoptotic gene Bcl-xl. […]
Cumene induced oxidative stress was performed by removing media from neuronal culture wells and adding 100 μl DMEM/N2 medium containing different concentrations of cumene (20-25 μM). […] Neuronal viability was measured and analysed as described above.

[4] = system: primary cortical neuronal cultures; assay: In vitro ischaemia/stroke model, transient oxygen glucose deprivation (Example 3); conditions: protein added (0.1-100 nM) at the time of in vitro ischaemia
[5] = system: cortical neuronal cultures; assay: In vitro ischemia, neuronal survival by MTS assay (Example 4); conditions: rhCyPA 100 nM; survival 24 h later; untreated 24%; FIG. 8B
Protocol: as §1, §2

ERK1 (p44) = assay: rhCyPA mediated ERK1/2 phosphorylation time course, Western blot densitometry; conditions: rhCyPA 100 nM
Protocol: (§3) FIG. 7—time course of recombinant human (rh) CyPA mediated ERK1/2 phosphorylation in cortical neuronal cultures. Neuronal cultures were treated with rhCyPA (100 nM) for the indicated times. The resulting protein lysates were probed with antibody to detect phosphorylated ERK1/2 and then re-probed for total ERK1/2.
(§4) For protein extraction, brain tissue and cultured cells were lysed in buffer (50 mM Tris-HCl pH 7.5, 100 mM NaCl, 20 mM EDTA, 0.1% SDS, 0.2% deoxycholic acid, containing Complete™ protein inhibitor, Roche), vortexed briefly and clarified by centrifugation at 4° C. Protein concentrations were determined by the Bradford assay (Biorad, USA). Equivalent amounts of protein (5-10 μg per lane) were loaded and separated on 4-12% gradient SDS poly-acrylamide Bis-Tris mini-gels, (NuPAGE; Invitrogen) and transferred to a PVDF membrane. Membranes were blocked in PBS/T containing ovalbumin (1 mg/mL) for 1 min at room temperature before washing in PBS/T and PBS.
(§5) Membranes were incubated at 4° C. overnight in blocking solution containing primary antibody, washed and incubated in blocking solution containing HRP conjugated secondary antibody for 1 h at room temperature. Protein bands were detected using ECL Plus (Amersham, UK) and visualised by exposure to x-ray film (Hyperfilm; Amersham), scanned and quantified using NIH image. Primary antibodies used were; rabbit polyclonal anti-CyPA (1:25000; Biomol), mouse monoclonal anti-β-tubulin (0.5 μg/mL, Pharmingen, USA), mouse monoclonal anti-phospho ERK1/2 (1:5000; Santa Cruz), rabbit polyclonal anti-ERK1/2 (1:10000; Santa Cruz) and goat polyclonal anti-CD147 (1:10000; Santa Cruz). Secondary antibodies were donkey anti-rabbit IgG (1:25,000-1:50,000; Amersham), sheep anti-mouse IgG (1:10,000-1:20,000; Amersham) and rabbit anti-goat IgG (Zymed).
(§6) To determine if exogenously applied CyPA can mediate ERK1/2 activation we exposed neuronal cultures to rhCyPA protein (100 nM) and the results are summarised in FIG. 7. Addition of rhCyPA induced a rapid phosphorylation of ERK1 and ERK2, which peaked at 5 min, before returning to basal levels.

ERK2 (p42) = assay: as above; conditions: rhCyPA 100 nM
Protocol: as §3, §4, §5, §6

## C[C@@H]1C[C@@H]([C@H](O)CC2CC(=O)NC(=O)C2)C(=O)[C@@H](C)C1 [CHX, cycloheximide]
[1]
  overall change of protein expression after preconditioning: protein down-regulation

## C[C@]12N[C@H](Cc3ccccc31)c1ccccc12 [MK801]
[1]
  overall change of protein expression after preconditioning: protein down-regulation

## CC(C)c1ccccc1.OO [cumene, cumene hydroperoxide, reference compound]
[2]; 25 μM cumene, dose response experiment, data not shown
  cell survival after exposure to cumene: 15-30%

## CyPA protein: CyPA protein suspended in PBS, added to neuronal cultures (0.1-100 nM)
[3]
  neuroprotection against cumene insult: neuroprotective
[4]
  neuroprotection against in vitro ischaemia: neuroprotective

## rhCyPA: recombinant human cyclophilin A (rhCyPA, Biomol)
[2]; rhCyPA 10 nM
  neuronal survival following cumene exposure: 56%
[2]; rhCyPA 100 nM
  neuronal survival following cumene exposure: 70%
[5]
  neuronal survival following in vitro ischemia: 35%
ERK1 (p44); at 5 min, FIG. 7
  ERK1 (p44) activation increase: 2.6 fold
ERK1 (p44); then returning to basal levels
  time of peak phosphorylation of ERK1: 5 min
ERK2 (p42); at 5 min, FIG. 7
  ERK2 (p42) activation increase: 3.3 fold
ERK2 (p42); then returning to basal levels
  time of peak phosphorylation of ERK2: 5 min
